The text below walks through data of patent US9376425B2, “Heterocyclic compounds as MDM2 inhibitors for the treatment of cancer” (AMGEN INC., priority 2011, dated 2016).

The target in this assay is T1, human MDM2 (GST-hMDM2 1-188), interaction with biotinylated-p53 (1-83) (Homo sapiens, UniProt Q00987).
T1 construct: Amino acid residues 1-188 of human MDM2 were expressed; made in house; host or cells: Escherichia coli
T1 sequence (Q00987 1-188): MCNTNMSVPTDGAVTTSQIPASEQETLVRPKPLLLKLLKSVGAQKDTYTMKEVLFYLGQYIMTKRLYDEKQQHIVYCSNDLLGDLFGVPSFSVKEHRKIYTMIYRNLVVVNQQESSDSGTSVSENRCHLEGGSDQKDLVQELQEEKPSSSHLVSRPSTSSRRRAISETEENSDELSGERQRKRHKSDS
Kind of assay: improved HTRF assay (HTRF2 assay), inhibition of HDM2-p53 interaction. The format is binding. The settings on record: 0.2 nM GST-hMDM2, 0.5 nM biotinylated-p53, 100 mM KF. The gist of the method: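 GST-hMDM2 preincubated 20 min at RT with serially diluted compound, then biotinylated p53 (1-83, E. coli) added for 60 min. Detection with SA-XLent, anti-GST cryptate and KF, equilibrated >4 h; final DMSO 2%. TR-FRET read; % inhibition calculated relative to nutlin-3.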
In general terms: TR-FRET usually uses a lanthanide donor and a delayed reading to cut background.
`CC(C)(C)S(=O)(=O)C[C@H](CC(F)(F)F)N1C(=O)[C@@H](CC(N)=O)O[C@H](c2cccc(Cl)c2)[C@H]1c1ccc(Cl)cc1` (single isomer, unassigned) [Example 363, 22-((2R,5R,6R)-4-((S)-1-(tert-Butylsulfonyl)-4,4,4-trifluorobutan-2-yl)-6-(3-chlorophenyl)-5-(4-chlorophenyl)-3-oxomorpholin-2-yl)acetamide or 2-((2S,5R,6R)-4-((S)-1-(tert-butylsulfonyl)-4,4,4-trifluorobutan-2-yl)-6-(3-chlorophenyl)-5-(4-chlorophenyl)-3-oxomorpholin-2-yl)acetamide] showed an IC50 of 23 nM.
Then `CNC(=O)C[C@H]1O[C@H](c2cccc(Cl)c2)[C@@H](c2ccc(Cl)cc2)N([C@H](CN(c2ccccc2F)S(=O)(=O)C2CC2)C2CC2)C1=O` (single isomer, unassigned) [Example 364, 2-((2R,5R,6R)-6-(3-Chlorophenyl)-5-(4-chlorophenyl)-4-((S)-1-cyclopropyl-2-(N-(2-fluorophenyl)cyclopropanesulfonamido)ethyl)-3-oxomorpholin-2-yl)-N-methylacetamide or 2-((2S,5R,6R)-6-(3-chlorophenyl)-5-(4-chlorophenyl)-4-((S)-1-cyclopropyl-2-(N-(2-fluorophenyl)cyclopropanesulfonamido)ethyl)-3-oxomorpholin-2-yl)-N-methylacetamide], with < 1 nM; and `CNC(=O)C[C@H]1O[C@H](c2cccc(Cl)c2)[C@@H](c2ccc(Cl)cc2)N([C@H](CN(c2ccccc2F)S(=O)(=O)C2CC2)C2CC2)C1=O` (single isomer, unassigned) [Example 365, 2-((2R,5R,6R)-6-(3-Chlorophenyl)-5-(4-chlorophenyl)-4-((S)-1-cyclopropyl-2-(N-(2-fluorophenyl)cyclopropanesulfonamido)ethyl)-3-oxomorpholin-2-yl)-N-methylacetamide or 2-((2S,5R,6R)-6-(3-chlorophenyl)-5-(4-chlorophenyl)-4-((S)-1-cyclopropyl-2-(N-(2-fluorophenyl)cyclopropanesulfonamido)ethyl)-3-oxomorpholin-2-yl)-N-methylacetamide], with 2 nM.
Then `CN(C)C(=O)C[C@H]1O[C@H](c2cccc(Cl)c2)[C@@H](c2ccc(Cl)cc2)N([C@H](CN(c2ccccc2F)S(=O)(=O)C2CC2)C2CC2)C1=O` (single isomer, unassigned) [Example 366, 2-((2R,5R,6R)-6-(3-Chlorophenyl)-5-(4-chlorophenyl)-4-((S)-1-cyclopropyl-2-(N-(2-fluorophenyl)cyclopropanesulfonamido)ethyl)-3-oxomorpholin-2-yl)-N,N-dimethylacetamide or 2-((2S,5R,6R)-6-(3-chlorophenyl)-5-(4-chlorophenyl)-4-((S)-1-cyclopropyl-2-(N-(2-fluorophenyl)cyclopropanesulfonamido)ethyl)-3-oxomorpholin-2-yl)-N,N-dimethylacetamide], with < 1 nM; and `CN(C)C(=O)C[C@H]1O[C@H](c2cccc(Cl)c2)[C@@H](c2ccc(Cl)cc2)N([C@H](CN(c2ccccc2F)S(=O)(=O)C2CC2)C2CC2)C1=O` (single isomer, unassigned) [Example 367, 2-((2R,5R,6R)-6-(3-Chlorophenyl)-5-(4-chlorophenyl)-4-((S)-1-cyclopropyl-2-(N-(2-fluorophenyl)cyclopropanesulfonamido)ethyl)-3-oxomorpholin-2-yl)-N,N-dimethylacetamide or 2-((2S,5R,6R)-6-(3-chlorophenyl)-5-(4-chlorophenyl)-4-((S)-1-cyclopropyl-2-(N-(2-fluorophenyl)cyclopropanesulfonamido)ethyl)-3-oxomorpholin-2-yl)-N,N-dimethylacetamide], with 4 nM.
As to `O=C(C[C@H]1O[C@H](c2cccc(Cl)c2)[C@@H](c2ccc(Cl)cc2)N([C@H](CN(c2ccccc2F)S(=O)(=O)C2CC2)C2CC2)C1=O)Nc1ccccn1` (single isomer, unassigned) [Example 368, 2-((2R,5R,6R)-6-(3-Chlorophenyl)-5-(4-chlorophenyl)-4-((S)-1-cyclopropyl-2-(N-(2-fluorophenyl)cyclopropanesulfonamido)ethyl)-3-oxomorpholin-2-yl)-N-(pyridin-2-yl)acetamide or 2-((2S,5R,6R)-6-(3-chlorophenyl)-5-(4-chlorophenyl)-4-((S)-1-cyclopropyl-2-(N-(2-fluorophenyl)cyclopropanesulfonamido)ethyl)-3-oxomorpholin-2-yl)-N-(pyridin-2-yl)acetamide], the IC50 was < 1 nM.
Then `O=C(C[C@H]1O[C@H](c2cccc(Cl)c2)[C@@H](c2ccc(Cl)cc2)N([C@H](CN(c2ccccc2F)S(=O)(=O)C2CC2)C2CC2)C1=O)Nc1ccccn1` (single isomer, unassigned) [Example 369, 2-((2R,5R,6R)-6-(3-Chlorophenyl)-5-(4-chlorophenyl)-4-((S)-1-cyclopropyl-2-(N-(2-fluorophenyl)cyclopropanesulfonamido)ethyl)-3-oxomorpholin-2-yl)-N-(pyridin-2-yl)acetamide or 2-((2S,5R,6R)-6-(3-chlorophenyl)-5-(4-chlorophenyl)-4-((S)-1-cyclopropyl-2-(N-(2-fluorophenyl)cyclopropanesulfonamido)ethyl)-3-oxomorpholin-2-yl)-N-(pyridin-2-yl)acetamide], with 8 nM; and `CC(C)(C)S(=O)(=O)C[C@H](C1CC1)N1C(=O)[C@@H](CCO)O[C@H](c2cccc(Cl)c2)[C@H]1c1ccc(Cl)cc1` (single isomer, unassigned) [Example 370, (2R,5R,6R)-4-((S)-2-(tert-Butylsulfonyl)-1-cyclopropylethyl)-6-(3-chlorophenyl)-5-(4-chlorophenyl)-2-(2-hydroxyethyl)morpholin-3-one or (2S,5R,6R)-4-((S)-2-(tert-butylsulfonyl)-1-cyclopropylethyl)-6-(3-chlorophenyl)-5-(4-chlorophenyl)-2-(2-hydroxyethyl)morpholin-3-one], with 28 nM.
Then `CC[C@@H](CS(=O)(=O)C(C)(C)C)N1C(=O)[C@@H](C[C@@H](O)CO)O[C@H](c2cccc(Cl)c2)[C@H]1c1ccc(Cl)cc1` (single isomer, unassigned) [Example 371], with 15 nM; and `CC[C@@H](CS(=O)(=O)C(C)(C)C)N1C(=O)[C@@H](C[C@@H](O)CO)O[C@H](c2cccc(Cl)c2)[C@H]1c1ccc(Cl)cc1` (single isomer, unassigned) [Example 372], with 67 nM.
Then `CC[C@@H](CS(=O)(=O)C(C)(C)C)N1C(=O)[C@@H](C[C@@H](O)CO)O[C@H](c2cccc(Cl)c2)[C@H]1c1ccc(Cl)cc1` (single isomer, unassigned) [Example 373], with 45 nM; and `CC[C@@H](CS(=O)(=O)C(C)(C)C)N1C(=O)[C@@H](C[C@@H](O)CO)O[C@H](c2cccc(Cl)c2)[C@H]1c1ccc(Cl)cc1` (single isomer, unassigned) [Example 374], with 19 nM.

Broadly, the IC50 is the concentration needed to halve the response being measured. The low end stands for greater potency in that assay, the high end for weaker potency in that assay.
